In patent publication US20130109682A1, “CYCLIC ETHER COMPOUNDS USEFUL AS KINASE INHIBITORS” (NOVARTIS AG, priority 2010, published 2013) one finds IC50 and EC50 data, which are given here for 18 molecules.

pEC50, pIC50: −log10 of the molar value. Where only a bound is given, the exact number is not on record here.

For test [1], the target named is GSK3β (Homo sapiens, UniProt P49841). Description: GSK3β ATP depletion assay. To be noted: ATP depletion assay; read-out: GSK3b IC50. It counts as biochemical. Put shortly:
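Human GSK3β (5 nM) preincubated 15 min with 10 μM biotinylated phospho-CREB peptide in pH 7.5 Tris buffer (15 mM MgCl2, 1 mM DTT, 0.1% BSA, 2.5% DMSO). Reaction started with 2 μM ATP and run to about 50% ATP depletion. Remaining ATP measured by KinaseGlo luminescence.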

The target in test [2] is PIM2 (Homo sapiens, UniProt Q9P1W9). Description: Pim 2 AlphaScreen assay (high ATP). The class given is biochemical. To be noted: read-out: Pim2 IC50. How it is done: Pim1, Pim2, Pim3 AlphaScreen Assay Pim 1, Pim 2 & Pim 3 AlphaScreen assays using high ATP (11-125×ATP Km) were used to determine the biochemical activity of the inhibitors. The activity of Pim 1, Pim 2, & Pim 3 is measured using a homogeneous bead based system quantifying the amount of phosphorylated peptide substrate resulting from kinase-catalyzed phosphoryl transfer to a peptide substrate. Compounds to be tested are dissolved in 100% DMSO and directly distributed to a white 384-well plate at […] per well. To start the reaction, 5 μl of 100 nM Bad peptide (Biotin-AGAGRSRHSSYPAGT —OH) and ATP (concentrations described below) in assay buffer (50 mM Hepes, pH=7.5, 5 mM MgCl2, 0.05% BSA, 0.01% Tween-20, 1 mM DTT) is added to each well. This is followed by the addition of 5 μl/well of Pim 1, Pim 2 or Pim 3 kinase in assay buffer (concentrations described below). Final assay concentrations (described below) are in 2.5% DMSO. The reactions are performed for ˜2 hours, then stopped by the addition of 10 μl of 0.75 μg/ml anti-phospho Ser/Thr antibody (Cell Signaling), 10 μg/ml Protein A AlphaScreen beads (Perkin Elmer), and 10 μg/ml streptavidin coated AlphaScreen beads in stop/detection buffer (50 mM EDTA, 95 mM Tris, pH=7.5, 0.01% Tween-20). The stopped reactions are incubated overnight in the dark. The phosphorylated peptide is detected via an […] initiated chemiluminescence/fluorescence cascade using the Envision plate reader (Perkin Elmer).
IC50, the half maximal inhibitory concentration, represents the concentration of a test compound that is required for 50% inhibition of its target in vitro under the described assay conditions.
(In general: In Alpha technology, singlet oxygen from a donor bead excites a nearby acceptor bead.)

Test [3] deals with KMS11 (human myeloma cell line). Description: Cell proliferation assay (CellTiter-Glo), KMS11. The class given is cell-based. To be noted: Homo sapiens, KMS-11; KMS11 cells, cell proliferation; read-out: KMS11-Luc EC50. An outline of the steps:
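KMS11 cells in IMDM with 10% FBS and sodium pyruvate, seeded at 2000 cells/well on assay day. Compound added at 2× to equal volume of cells, incubated 3 days at 37° C. Viability read by CellTiter-Glo luminescence; EC50 derived.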
A general note: ATP-based viability assays read luminescence as a measure of living cells.

Sequence of PIM2 (Q9P1W9 whole entry): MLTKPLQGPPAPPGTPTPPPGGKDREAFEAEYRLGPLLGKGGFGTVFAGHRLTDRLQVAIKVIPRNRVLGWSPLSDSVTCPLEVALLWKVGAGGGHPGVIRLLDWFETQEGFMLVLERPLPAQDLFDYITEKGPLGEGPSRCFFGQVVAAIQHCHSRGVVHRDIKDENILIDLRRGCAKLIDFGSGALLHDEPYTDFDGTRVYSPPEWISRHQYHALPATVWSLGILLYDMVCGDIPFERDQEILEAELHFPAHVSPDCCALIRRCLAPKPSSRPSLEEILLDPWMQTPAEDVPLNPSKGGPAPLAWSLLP
Sequence of GSK3β (P49841 whole entry, species assumed): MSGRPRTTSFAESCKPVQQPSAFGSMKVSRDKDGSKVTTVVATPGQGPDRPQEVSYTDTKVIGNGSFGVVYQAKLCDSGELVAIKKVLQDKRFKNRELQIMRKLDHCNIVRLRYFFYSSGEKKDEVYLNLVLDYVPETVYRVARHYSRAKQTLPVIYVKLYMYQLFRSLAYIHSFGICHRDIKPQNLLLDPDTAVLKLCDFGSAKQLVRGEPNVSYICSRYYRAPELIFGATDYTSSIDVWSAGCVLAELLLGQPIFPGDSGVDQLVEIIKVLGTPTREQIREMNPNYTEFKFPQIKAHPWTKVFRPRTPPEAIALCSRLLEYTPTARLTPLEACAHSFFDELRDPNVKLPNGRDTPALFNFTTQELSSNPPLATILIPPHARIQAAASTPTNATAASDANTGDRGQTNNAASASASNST

With `C[C@]1(O)[C@H](N)CC(c2ccncc2NC(=O)c2ccc(F)c(-c3c(F)cc(S(C)(=O)=O)cc3F)n2)O[C@@H]1C1CC1` (stereo in doubt) [Example 281, N-(4-((2S,4R,5S,6R)-4-amino-6-cyclopropyl-5-hydroxy-5-methyltetrahydro-2H-pyran-2-yl)pyridin-3-yl)-6-(2,6-difluoro-4-(methylsulfonyl)phenyl)-5-fluoropicolinamide], the negative-log IC50 (pIC50) in test [1] was 5.37; in test [2], 7.21. Also, the pEC50 in test [3] was 5.96.
For `CC(C)[C@H]1OC(c2ccncc2NC(=O)c2ccc(F)c(-c3c(F)cc(S(C)(=O)=O)cc3F)n2)C[C@@H](N)[C@@H]1O` (stereo in doubt) [Example 305, N-(4-((2S,4R,5S,6R)-4-amino-5-hydroxy-6-isopropyltetrahydro-2H-pyran-2-yl)pyridin-3-yl)-6-(2,6-difluoro-4-(methylsulfonyl)phenyl)-5-fluoropicolinamide] the same measures were 5.55, 7.82 and 6.51.
For `CC(C)(C)[C@H]1O[C@@H](c2ccncc2NC(=O)c2ccc(F)c(-c3c(F)cc(S(C)(=O)=O)cc3F)n2)C[C@@H](N)[C@@H]1O` [Example 280, N-(4-((2R,4R,5S,6R)-4-amino-6-(tert-butyl)-5-hydroxytetrahydro-2H-pyran-2-yl)pyridin-3-yl)-6-(2,6-difluoro-4-(methylsulfonyl)phenyl)-5-fluoropicolinamide] the same measures were 5.65, 7.93 and 6.70.
`CC(C)[C@H]1C[C@@H](N)C[C@@H](c2ccncc2NC(=O)c2ccc(F)c(-c3c(F)cc(S(C)(=O)=O)cc3F)n2)O1` [Example 303, N-(4-((2S,4R,6R)-4-amino-6-isopropyltetrahydro-2H-pyran-2-yl)pyridin-3-yl)-6-(2,6-difluoro-4-(methylsulfonyl)phenyl)-5-fluoropicolinamide]: the pIC50 in test [1] was 4.99; in test [2], 5.90.
For the molecule `CC(C)[C@H]1O[C@@H](c2ccncc2NC(=O)c2ccnc(-n3ccc(=O)cc3)n2)C[C@@H](N)[C@@H]1O` [Example 304, N-(4-((2R,4R,5S,6R)-4-amino-5-hydroxy-6-isopropyltetrahydro-2H-pyran-2-yl)pyridin-3-yl)-2-(4-oxopyridin-1(4H)-yl)pyrimidine-4-carboxamide], the negative-log IC50 (pIC50) in test [1] and in test [2] was below 4.60 each time.
As for `CC(C)[C@H]1O[C@@H](c2ccncc2NC(=O)c2ccc(F)c(-c3ccc(S(C)(=O)=O)cc3)n2)C[C@@H](N)[C@@H]1O` [Example 306, N-(4-((2R,4R,5S,6R)-4-amino-5-hydroxy-6-isopropyltetrahydro-2H-pyran-2-yl)pyridin-3-yl)-5-fluoro-6-(4-(methylsulfonyl)phenyl)picolinamide], the negative logarithm of the IC50 (pIC50) was 5.55 in test [1] and 5.78 in test [2].
On the same counts, the results for `CC(C)C(=O)Nc1ccc(F)c(-c2nc(C(=O)Nc3cnccc3[C@H]3C[C@@H](N)[C@H](O)[C@@H](C(C)C)O3)ccc2F)c1F` [Example 308, N-(4-((2R,4R,5S,6R)-4-amino-5-hydroxy-6-isopropyltetrahydro-2H-pyran-2-yl)pyridin-3-yl)-6-(2,6-difluoro-3-isobutyramidophenyl)-5-fluoropicolinamide] are 4.74 and 7.16.
On the same counts, the results for `CC(C)[C@H]1O[C@@H](c2ccncc2NC(=O)c2ccc(F)c(-c3ccccc3)n2)C[C@@H](N)[C@@H]1O` [Example 309, N-(4-((2R,4R,5S,6R)-4-amino-5-hydroxy-6-isopropyltetrahydro-2H-pyran-2-yl)pyridin-3-yl)-5-fluoro-6-phenylpicolinamide] are 5.09 and 6.88.
As for `CC(C)[C@H]1O[C@@H](c2ccncc2NC(=O)c2ccnc(-n3c(F)cccc3=O)n2)C[C@@H](N)[C@@H]1O` [Example 310, N-(4-((2R,4R,5S,6R)-4-amino-5-hydroxy-6-isopropyltetrahydro-2H-pyran-2-yl)pyridin-3-yl)-2-(6-fluoro-2-oxopyridin-1(2H)-yl)pyrimidine-4-carboxamide], the negative-log IC50 (pIC50) is 5.48 in test [1] and 5.16 in test [2].
For `C[C@H]1O[C@@H](c2ccncc2NC(=O)c2ccc(F)c(-c3ccc(N)nc3F)n2)C[C@@H](N)[C@]1(C)O` [Example 311, 6′-amino-N-(4-((2R,4R,5S,6R)-4-amino-5-hydroxy-5,6-dimethyltetrahydro-2H-pyran-2-yl)pyridin-3-yl)-2′,3-difluoro-2,3′-bipyridine-6-carboxamide] the same measures were 5.64 and 7.07.
On the same counts, the results for `CC(C)[C@H]1O[C@@H](c2ccncc2NC(=O)c2ccc(F)c(-c3cccc(S(C)(=O)=O)c3)n2)C[C@@H](N)[C@@H]1O` [Example 312, N-(4-((2R,4R,5S,6R)-4-amino-5-hydroxy-6-isopropyltetrahydro-2H-pyran-2-yl)pyridin-3-yl)-5-fluoro-6-(3-(methylsulfonyl)phenyl)picolinamide] are below 4.60 and 5.61.
In the case of `CNC(=O)c1cc(F)c(-c2nc(C(=O)Nc3cnccc3[C@H]3C[C@@H](N)[C@](C)(O)[C@@H](C)O3)ccc2F)c(F)c1` [Example 333, N-(4-((2R,4R,5S,6R)-4-amino-5-hydroxy-5,6-dimethyltetrahydro-2H-pyran-2-yl)pyridin-3-yl)-6-(2,6-difluoro-4-(methylcarbamoyl)phenyl)-5-fluoropicolinamide], the negative logarithm of the IC50 (pIC50) in test [2] is 7.56. Further, the pEC50 in test [3] was 5.42.
Turning to `C[C@H]1O[C@@H](c2ccncc2NC(=O)c2ccc(F)c(-c3c(F)cc(C(=O)N(C)C)cc3F)n2)C[C@@H](N)[C@]1(C)O` [Example 334, N-(4-((2R,4R,5S,6R)-4-amino-5-hydroxy-5,6-dimethyltetrahydro-2H-pyran-2-yl)pyridin-3-yl)-6-(4-(dimethylcarbamoyl)-2,6-difluorophenyl)-5-fluoropicolinamide], the negative logarithm of the IC50 (pIC50) in test [2] is 7.20. For the same molecule, the negative-log EC50 (pEC50) in test [3] is 6.12.
On the same counts, the results for `C[C@H]1O[C@@H](c2ccncc2NC(=O)c2ccc(F)c(N3CCS(=O)(=O)CC3)n2)C[C@@H](N)[C@]1(C)O` [Example 335, N-(4-((2R,4R,5S,6R)-4-amino-5-hydroxy-5,6-dimethyltetrahydro-2H-pyran-2-yl)pyridin-3-yl)-6-(1,1-dioxidothiomorpholino)-5-fluoropicolinamide] are below 4.60 and below 5.00.
On the same counts, the results for `CC[C@H]1O[C@@H](c2ccncc2NC(=O)c2ccc(F)c(-c3c(F)cc(C(C)(C)O)cc3F)n2)C[C@@H](N)[C@@H]1O` [Example 336, N-(4-((2R,4R,5S,6R)-4-amino-6-ethyl-5-hydroxytetrahydro-2H-pyran-2-yl)pyridin-3-yl)-6-(2,6-difluoro-4-(2-hydroxypropan-2-yl)phenyl)-5-fluoropicolinamide] are 8.41 and 6.74.
On to `CC(C)[C@@H]1C[C@H](N)C[C@H](c2ccncc2NC(=O)c2ccc(F)c(-c3c(F)ccc(C#N)c3F)n2)O1` [Example 337, N-(4-((2R,4S,6S)-4-amino-6-isopropyltetrahydro-2H-pyran-2-yl)pyridin-3-yl)-6-(3-cyano-2,6-difluorophenyl)-5-fluoropicolinamide], for which, in test [2], the negative-log IC50 (pIC50) is 7.40. In addition, the pEC50 in test [3] is 5.87.
For `CC(=O)Nc1cc(F)c(-c2nc(C(=O)Nc3cnccc3[C@H]3C[C@@H](N)[C@](C)(O)[C@@H](C)O3)ccc2F)c(F)c1` [Example 338, 6-(4-acetamido-2,6-difluorophenyl)-N-(4-((2R,4R,5S,6R)-4-amino-5-hydroxy-5,6-dimethyltetrahydro-2H-pyran-2-yl)pyridin-3-yl)-5-fluoropicolinamide] the same measures were 8.68 and 6.03.
In the case of `CC(C)C(=O)Nc1cc(F)c(-c2nc(C(=O)Nc3cnccc3[C@H]3C[C@@H](N)[C@](C)(O)[C@@H](C)O3)ccc2F)c(F)c1` [Example 339, N-(4-((2R,4R,5S,6R)-4-amino-5-hydroxy-5,6-dimethyltetrahydro-2H-pyran-2-yl)pyridin-3-yl)-6-(2,6-difluoro-4-isobutyramidophenyl)-5-fluoropicolinamide], the pIC50 in test [2] is 8.46. For the same molecule, the negative logarithm of the EC50 (pEC50) in test [3] is 6.64.

As usually defined, the pIC50 is −log10 of the IC50, conventionally taken in molar units. Usually pEC50 stands for −log10 of the EC50, conventionally taken in molar units.
